Results reported in patent US5061729A, “Pharmaceutical composition and process for preparing the same” (priority 1988, dated 1991).
Like-named read-outs stand apart in the source and are kept apart here.

Key:
[1] = test system: pathogenic micro-organisms occurring in the discharges of patients suffering from chronic otitis; experiment: treatment of the ear discharges by antibacterial agents (sensitivity, Table 2); assay type: cell-based; details: for A = therapeutically active (sensitive) / M = moderately active / R = inactive (resistant): number of cases of 510 examinations; for Act. = activity %: share of active cases, 510 examinations
Experimental: In the Department for Otorhinolaryngology of the Medical University of Debrecen, adult and child patients were examined to identify the types of pathogenic micro-organisms occurring in the discharges of patients suffering from chronic otitis (otitis media chronica); the discharges of 510 patients were analyzed for the bacterial infection.
Symbols used in Table 2:
0 = number of the cases not examined
A = therapeutically active (sensitive)

[2] = cited from earlier work
[3] = mucolytic (viscosity-reducing) effect of sulfhydryl compounds; details: comparison of compounds containing a sulfhydryl group
[4] = single-component treatment: aqueous solutions of sulfhydryl compounds; assay type: in vivo, patients; details: acetylcysteine solution
[5] = dogs; oral administration; cited from earlier work
[6] = rats; oral administration; cited from earlier work
[7] = mice; oral administration; cited from earlier work
[8] = test system: several gram-positive and gram-negative bacteria such as Pseudomonas aeruginosa; details: in vitro conditions; M. F. Parry et al.; cited from earlier work
[9] = single-component treatment: 1% tobramycin solution in chronic mesotympanic otitis; assay type: in vivo, patients; details: 1% solution
Description: (§1) Several compositions according to the invention were also studied with omitting one active ingredient of the composition in order to support the progressive character of the multi-active-component type composition according to the invention. These experiments led to the following results.

[10] = single-component treatment: 1% tobramycin solution in external otitis; assay type: in vivo, patients; details: 1% solution
Description: as §1

[11] = with sulfhydryl-containing compounds, particularly acetylcysteine

| Molecule | A = therapeutically active (sensitive) [1] | M = moderately active [1] | R = inactive (resistant) [1] | Act. = activity % [1] [%] | also measured |
| --- | --- | --- | --- | --- | --- |
| CC1(C)S[C@@H]2[C@H](NC(=O)[C@H](N)c3ccccc3)C(=O)N2[C@H]1C(=O)O [Ampicillin] | 72 | 11 | 120 | 40.8 |  |
| CC1(C)S[C@@H]2[C@H](NC(=O)C(C(=O)O)c3ccccc3)C(=O)N2[C@H]1C(=O)O (stereo partly shown) [Carbenicillin] | 137 | 22 | 91 | 63.6 |  |
| O=C(Cc1cccs1)N[C@@H]1C(=O)N2C(C(=O)[O-])=C(C[n+]3ccccc3)CS[C@H]12 [Cephaloridin] | 170 | 27 | 182 | 51.9 |  |
| O=C(N[C@H](CO)[C@H](O)c1ccc([N+](=O)[O-])cc1)C(Cl)Cl [Chloramphenicol] | 106 | 11 | 197 | 37.2 |  |
| CC[C@H]1OC(=O)[C@H](C)[C@@H](O[C@H]2C[C@@](C)(OC)[C@@H](O)[C@H](C)O2)[C@H](C)[C@@H](O[C@@H]2O[C@H](C)C[C@H](N(C)C)[C@H]2O)[C@](C)(O)C[C@@H](C)C(=O)[C@H](C)[C@@H](O)[C@]1(C)O [Erythromycin] | 113 | 6 | 208 | 36.4 | influence of sulfhydryl-containing compounds on absorption from the stomach ([2]; in vivo): not disadvantageously influenced by the sulfhydryl-containing compounds |
| COc1cccc(OC)c1C(=O)N[C@@H]1C(=O)N2[C@@H]1SC(C)(C)[C@@H]2C(=O)O [Meticillin] | 146 | 27 | 95 | 64.6 |  |
| CC(=O)N[C@@H](CS)C(=O)O [N-acetyl-L-cysteine] |  |  |  |  | mucolytic effect [3]: most useful mucolytic agent; character of the discharge under treatment [4]: rather took the form of a precipitate; LD50 [5]: 1000 mg/kg of body-weight; LD50 [6]: 6000 mg/kg of body-weight; LD50 [7]: 3000 mg/kg of body-weight; synergistic effect with several antibiotics [8]: shows a synergistic effect with several antibiotics |
| CO[C@H]1C[C@H](O[C@H]2[C@H](C)[C@@H](O[C@@H]3O[C@H](C)C[C@H](N(C)C)[C@H]3O)[C@@H](C)C[C@@]3(CO3)C(=O)[C@H](C)[C@@H](O)[C@@H](C)[C@@H](C)OC(=O)[C@@H]2C)O[C@@H](C)[C@@H]1O [Oleandomycin] | 114 | 4 | 179 | 39.7 |  |
| Cc1onc(-c2ccccc2)c1C(=O)N[C@@H]1C(=O)N2[C@@H]1SC(C)(C)[C@@H]2C(=O)O [Oxacillin] | 191 | 13 | 77 | 72.6 |  |
| CC1(C)S[C@@H]2[C@H](NC(=O)Cc3ccccc3)C(=O)N2[C@H]1C(=O)O [Penicillin] | 67 | 22 | 218 | 29.4 |  |
| [H]/N=C(/N)N[C@H]1[C@H](O)[C@@H](O)[C@H](O[C@@H]2O[C@@H](C)[C@](O)(C=O)[C@H]2O[C@@H]2O[C@@H](CO)[C@H](O)[C@@H](O)[C@@H]2NC)[C@@H](N/C(N)=N\[H])[C@@H]1O [Streptomycin] | 39 | 42 | 87 | 48.2 |  |
| CN(C)[C@@H]1C(=O)C(C(N)=O)=C(O)[C@@]2(O)C(=O)C3=C(O)c4c(O)cccc4[C@@](C)(O)[C@H]3C[C@@H]12 [Tetracyclin] | 79 | 16 | 279 | 25.4 |  |
| NC[C@H]1O[C@H](O[C@H]2[C@H](O)[C@@H](O[C@H]3O[C@H](CO)[C@@H](O)[C@H](N)[C@H]3O)[C@H](N)C[C@@H]2N)[C@H](N)C[C@@H]1O [Tobramycin, tobramycin] | 116 | 86 | 61 | 79.2 | substantial improvement of the pathological processes, % of patients [9]: about 60%; substantial improvement, % of patients [10]: ≤ 40%; influence of sulfhydryl-containing compounds on absorption from the stomach ([2]; in vivo): not disadvantageously influenced by the sulfhydryl-containing compounds |
| CC1(C)S[C@@H]2[C@H](NC(=O)[C@H](N)c3ccc(O)cc3)C(=O)N2[C@H]1C(=O)O [amoxicillin] |  |  |  |  | influence of sulfhydryl-containing compounds on absorption from the stomach [2, 11]: not disadvantageously influenced by the sulfhydryl-containing compounds |
| N[C@@H](CSCC(=O)O)C(=O)O [carbocysteine] |  |  |  |  | mucolytic effect [3]: mucolytic effect can also be shown |
| O=C(O)C(S)C(S)C(=O)O (stereo not shown) [dimercaptosuccinate] |  |  |  |  | mucolytic effect [3]: mucolytic effect can also be shown |
| CCN(CC)C(=S)SSC(=S)N(CC)CC [disulfiram] |  |  |  |  | mucolytic effect [3]: mucolytic effect can also be shown |
| O[C@H](CS)[C@@H](O)CS [dithioerythritol] |  |  |  |  | mucolytic effect [3]: mucolytic effect can also be shown |
| C[C@H]1c2cccc(O)c2C(O)=C2C(=O)[C@]3(O)C(O)=C(C(N)=O)C(=O)[C@@H](N(C)C)[C@@H]3[C@@H](O)[C@@H]21 [doxycyclin] |  |  |  |  | influence of sulfhydryl-containing compounds on absorption from the stomach [2, 11]: not disadvantageously influenced by the sulfhydryl-containing compounds |
| N[C@@H](CCC(=O)N[C@@H](CS)C(=O)NCC(=O)O)C(=O)O [glutathione] |  |  |  |  | mucolytic effect [3]: mucolytic effect can also be shown |
| CC(C)(CO)[C@@H](O)C(=O)NCCC(=O)NCCS [pantetheine] |  |  |  |  | mucolytic effect [3]: mucolytic effect can also be shown |
| Gentamycin | 65 | 72 | 118 | 53.7 |  |
| Polymyxin B | 69 | 8 | 103 | 42.7 |  |
| neomycin | 27 | 13 | 5 | 88.9 | influence of sulfhydryl-containing compounds on absorption from the stomach ([2]; in vivo): not disadvantageously influenced by the sulfhydryl-containing compounds |
